We go through 15 compounds from PubChem BioAssay (NCI).

Values joined by “and” are separate entries in the source; they are usually repeats but may differ in a detail not shown here. Equal entries are not always repeated.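 Interpolation was linear, between the two tested concentrations surrounding the appropriate level; five concentrations were tested over 48 hours in 96-well plates. Definition used: TGI = concentration required for complete inhibition of growth.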 A value given as a limit tells only on which side of the number the result lay.

Some test systems named below: NCI-H460 lung; HCT-15 colon; SK-MEL-28 melanoma; RXF 393 renal; EKVX NSCLC; CCRF-CEM leukemia; HCT-116 colon; HOP-62 NSCLC; HT29 colon; MDA-MB-231 breast.
What all share (test): growth of human tumour cells (NCI), 48 h

Consider `O=c1cc(-c2c[nH]c3ccccc23)[nH]c2cc3c(cc12)OCO3`, for which the TGI with NCI-H460 lung, with HCT-15 colon, in the experiment on SK-MEL-28 melanoma, in the experiment on RXF 393 renal, in the experiment on EKVX NSCLC and in the experiment with CCRF-CEM leukemia was > 100 µM throughout. In addition, the TGI in the experiment on HCT-116 colon, in the experiment with HOP-62 NSCLC and with HT29 colon was > 100 µM throughout.
Consider `COc1cc(C2c3cc4c(cc3OC(Nc3ccccc3)C2C)OCO4)cc(OC)c1O` (stereo not given), for which the TGI turned out to be 17.5 µM with HCT-15 colon; 28.4 µM in the experiment on SK-MEL-28 melanoma; 19.7 µM in the experiment with RXF 393 renal; 16 µM in the experiment with HCT-116 colon; 19.3 µM in the experiment on MDA-MB-231 breast; 18.1 µM in the experiment on HT29 colon.
With `Cc1c(CCO)c(=O)n2c([nH]c3ccccc32)c1C#N`, the TGI was 98.8 µM in the experiment with NCI-H460 lung; > 100 µM in the experiment on HCT-15 colon; > 100 µM with SK-MEL-28 melanoma; > 100 µM with RXF 393 renal; > 100 µM with EKVX NSCLC; > 100 µM in the experiment with CCRF-CEM leukemia. Besides, the TGI in the experiment with HCT-116 colon, in the experiment on HOP-62 NSCLC and in the experiment on HT29 colon was > 100 µM in each case.
As to `CCCC(C)n1c(C)nc2c1C(=O)c1ccccc1C2=O` (stereo not given), the TGI in the experiment with NCI-H460 lung is 16.8 µM; in the experiment on HCT-15 colon it was > 100 µM; in the experiment with SK-MEL-28 melanoma, > 100 µM; in the experiment with RXF 393 renal, 69.2 µM; in the experiment with EKVX NSCLC, > 100 µM; with CCRF-CEM leukemia it was > 100 µM. Moreover, the TGI with HCT-116 colon is 19.5 µM; with HOP-62 NSCLC, > 100 µM; in the experiment on HT29 colon, > 100 µM.
Turning to `COc1cc(CNc2cnc3cc(N)ccc3n2)cc(OC)c1OC`, the TGI in the experiment with NCI-H460 lung is > 100 µM; in the experiment with HCT-15 colon, > 100 µM; with SK-MEL-28 melanoma, > 100 µM; in the experiment on EKVX NSCLC it was > 100 µM; in the experiment on CCRF-CEM leukemia it was > 100 µM; with HCT-116 colon it was 50.2 µM. The TGI was > 100 µM in the experiment on HOP-62 NSCLC and 55.8 µM with HT29 colon.
`O=C1c2ccccc2C(=O)c2c(O)c(NCCCNCCO)cc(O)c21`: the TGI in the experiment with NCI-H460 lung amounted to 17.8 µM; in the experiment with HCT-15 colon it was 24.6 µM; in the experiment on SK-MEL-28 melanoma, 30.4 µM; in the experiment with EKVX NSCLC it was 28.3 µM; in the experiment on CCRF-CEM leukemia it was 15.5 µM; in the experiment with HOP-62 NSCLC, 15.4 µM. The TGI with HT29 colon is 18.7 µM.
For the compound `O=C(/C=C/c1ccco1)c1ccc(NCc2nc3ccccc3[nH]2)cc1`, the TGI in the experiment with NCI-H460 lung was > 100 µM; in the experiment on HCT-15 colon, 30.3 µM; in the experiment with SK-MEL-28 melanoma, 33.8 µM; in the experiment with EKVX NSCLC, 29.9 µM; in the experiment with CCRF-CEM leukemia, 33.5 µM; with HOP-62 NSCLC, 35.6 µM. In the experiment on HT29 colon, this compound displayed a TGI of 38.3 µM.
For the compound `COC1CC(OC2C(C)OC(OC3C(C)OC(OC4C(O)CC(O[C@H]5CC[C@@]6(C)C(=CC[C@]7(O)[C@@H]6C[C@@H](OC(C)=O)[C@@]6(C)[C@]7(O)CC[C@@]6(O)C(C)=O)C5)OC4C)CC3OC)CC2OC)OC(C)C1O` (stereo not given in full), the TGI with HCT-15 colon, with EKVX NSCLC, with CCRF-CEM leukemia, with HCT-116 colon, with MDA-MB-231 breast and in the experiment with HOP-62 NSCLC was > 12.5 µM throughout. In addition, the TGI in the experiment on HT29 colon is > 12.5 µM.
For the compound `CC(=O)NC1C(OCc2ccccc2)OC(CO)C(O)C1OC(C)C(=O)N[C@@H](C)C(=O)N[C@H](CCC(=O)OCCNc1c2ccccc2nc2cccc([N+](=O)[O-])c12)C(N)=O` (stereo not given in full), the TGI with NCI-H460 lung is 0.00137 µM; in the experiment with HCT-15 colon, 0.00156 µM; in the experiment with SK-MEL-28 melanoma, 0.0118 µM; in the experiment on RXF 393 renal it was 0.00304 µM; with EKVX NSCLC, 0.00472 µM; in the experiment on CCRF-CEM leukemia, > 0.1 µM and 0.0189 µM. Moreover, the TGI is 0.00243 µM in the experiment with HCT-116 colon and 0.00443 µM with HT29 colon.
For the compound `CN(C)c1ccc(C=C2C(=O)N(c3ccccc3)N(c3ccccc3)C2=O)cc1`, the TGI with HCT-15 colon, in the experiment with SK-MEL-28 melanoma, with EKVX NSCLC, with HCT-116 colon, in the experiment with MDA-MB-231 breast and in the experiment with HOP-62 NSCLC was > 100 µM in each case. Also, in the experiment with HT29 colon, the TGI is > 100 µM.
`COC(=O)/C(=N/Nc1cccc(Cl)c1)C(C(=O)C(=O)Nc1cccc(Cl)c1C)c1nc2ccccc2nc1C` (stereo not given): the TGI in the experiment with NCI-H460 lung, in the experiment on SK-MEL-28 melanoma, with RXF 393 renal, in the experiment on EKVX NSCLC, with CCRF-CEM leukemia and with HCT-116 colon was > 100 µM in each case. Further, the TGI in the experiment on HOP-62 NSCLC and in the experiment on HT29 colon was > 100 µM throughout.
Consider `COC(=O)C1C=CCON2CCc3c(n(C)c4ccccc34)C12` (stereo not given), for which the TGI in the experiment with NCI-H460 lung, with HCT-15 colon, with SK-MEL-28 melanoma, with RXF 393 renal, in the experiment on EKVX NSCLC and in the experiment with CCRF-CEM leukemia was > 100 µM throughout. Moreover, the TGI in the experiment on HCT-116 colon, with HOP-62 NSCLC and in the experiment with HT29 colon was > 100 µM in each case.
For the compound `CC1(C)O[C@@H](CCl)C[C@H](C#N)O1`, the TGI in the experiment on NCI-H460 lung, in the experiment with HCT-15 colon, in the experiment with SK-MEL-28 melanoma, with RXF 393 renal, in the experiment on EKVX NSCLC and in the experiment on CCRF-CEM leukemia was > 100 µM throughout. The TGI in the experiment with HCT-116 colon, with HOP-62 NSCLC and with HT29 colon was > 100 µM in each case.
Take `C(=Nc1ccc(-c2nc3ccccc3[nH]2)cc1)c1ccc[nH]1`: the TGI with HCT-15 colon was > 100 µM; with SK-MEL-28 melanoma it was > 100 µM; in the experiment with RXF 393 renal it was > 100 µM; in the experiment with EKVX NSCLC it was > 100 µM; in the experiment with CCRF-CEM leukemia, 85.1 µM; in the experiment with HCT-116 colon it was > 100 µM. For the same compound, the TGI with HOP-62 NSCLC and in the experiment with HT29 colon was > 100 µM throughout.
With `CSCCCS/C1=C/CCCCCCCCCC1`, the TGI in the experiment on NCI-H460 lung, in the experiment on HCT-15 colon, in the experiment on SK-MEL-28 melanoma, with RXF 393 renal, in the experiment on EKVX NSCLC and with HCT-116 colon was > 100 µM each time. Also, the TGI in the experiment on MDA-MB-231 breast, in the experiment on HOP-62 NSCLC and with HT29 colon was > 100 µM throughout.
